Columns and labels:
[1] = tested on: Quadruplex DNA; assay: Thermal stabilization of human telomeric G-quadruplex F21T DNA (FAM-5'-GGGTTAGGGTTAGGGTTAGGG-3'-TAMRA) assessed as change in half-width of melting temperature at 2 uM by FRET-melting assay; assay type: nucleic-acid assay
[2] = tested on: Non-structural protein 3/TRF2 G-quadruplex ribonucleic acid; assay: Inhibition of N-terminal His-tagged SARS-CoV-2 Nsp3 SUD-NM domain (413-676 residues)/SARS-CoV-2 TRF2 G-quadruplex RNA incubated for 2 hrs by HTRF assay; assay type: protein assay, Severe acute respiratory syndrome coronavirus 2
[3] = Cytotoxicity against human A549 cells harboring ACE2-CI33 assessed as cell viability by celltiter glo assay; assay type: toxicity, cell-based
[4] = Cytotoxicity against human Caco-2 cells harboring ACE2-CI33 assessed as cell viability by celltiter glo assay; assay type: toxicity, cell-based
[5] = tested on: Quadruplex DNA; assay: Thermal stabilization of human telomeric G-quadruplex F21T DNA (FAM-5'-GGGTTAGGGTTAGGGTTAGGG-3'-TAMRA) assessed as change in half-width of melting temperature at 0.5 uM by FRET-melting assay; assay type: nucleic-acid assay
[6] = tested on: Quadruplex DNA; assay: Thermal stabilization of human telomeric G-quadruplex F21T DNA (FAM-5'-GGGTTAGGGTTAGGGTTAGGG-3'-TAMRA) assessed as change in half-width of melting temperature at 1 uM by FRET-melting assay; assay type: nucleic-acid assay

Row | Structure (SMILES) | deltaTm1/2 [1] [°C] | IC50 [2] [µM] | CC50 [3] [µM] | CC50 at 75 h [4] [µM] | deltaTm1/2 [5] [°C] | deltaTm1/2 [6] [°C]
1 | CN(C)CCCCCNCc1ccc(-c2nc(-c3ccc(CNCCCCCN(C)C)cc3)c3ncn(-c4ccccc4)c3n2)cc1 | 34 | 0.103 | – | – | – | –
2 | CN(C)CCCCNCc1ccc(-c2nc(-c3ccccc3)c3ccn(-c4ccc(CNCCCCN(C)C)cc4)c3n2)cc1 | 26.4 | 0.097 | – | – | – | –
3 | CN(C)CCCCNCc1ccc(-c2nc(-c3ccc(CNCCCCN(C)C)cc3)c3ncn(-c4ccccc4)c3n2)cc1 | 31.7 | 0.079 | – | – | – | –
4 | CN(C)CCCCCNCc1ccc(-c2cc(-c3ccc(CNCCCCCN(C)C)cc3)c3ccn(-c4ccccc4)c3c2)cc1 | 30.9 | 0.09 | 3.01 | 2.32 | – | –
5 | CN(C)CCCCNCc1ccc(-c2ccc3ccc4ccc(-c5ccc(CNCCCCN(C)C)cc5)nc4c3n2)cc1 | 18.5 | 0.0312 | > 10 | – | – | –
6 | CN(C)CCCCNCc1ccc(-c2cc(-c3ccc(CNCCCCN(C)C)cc3)c3ccn(-c4ccccc4)c3c2)cc1 | 23.7 | 0.075 | 2.83 | 2.14 | – | –
7 | CN(C)CCCCCNCc1ccc(-c2cc3c(ccn3-c3ccccc3)c(-c3ccc(CNCCCCCN(C)C)cc3)n2)cc1 | 22.6 | > 0.2 | – | – | – | –
8 | CC(C)CCCCNCc1ccc(-c2cc(-c3ccc(CNCCCCC(C)C)cc3)c3ccn(-c4ccccc4)c3c2)cc1 | 4 | > 0.5 | – | – | – | –
9 | CN(C)CCCCNCc1ccc(-c2nc(-c3ccc(CNCCCCN(C)C)cc3)c3c(ccn3-c3ccccc3)n2)cc1 | 18.6 | 0.09 | – | – | – | –
10 | CN(C)CCCCNCc1ccc(-c2cn(-c3ccccc3)c3ncnc(-c4ccc(CNCCCCN(C)C)cc4)c23)cc1 | 13.1 | > 0.5 | – | – | – | –
11 | CN1CCN(CCCCNCc2ccc(-c3nc(-c4ccc(CNCCCCN5CCN(C)CC5)cc4)c4ncn(-c5ccccc5)c4n3)cc2)CC1 | 30.2 | 0.115 | – | – | – | –
12 | CCN(CC)CCCCNCc1ccc(-c2cc3c(ccn3-c3ccccc3)c(-c3ccc(CNCCCCN(CC)CC)cc3)n2)cc1 | 28.7 | 0.446 | – | – | – | –
13 | CN(C)CCCCCNCc1ccc(-c2cn(-c3ccccc3)c3ncnc(-c4ccc(CNCCCCCN(C)C)cc4)c23)cc1 | 14.8 | 0.14 | – | – | – | –
14 | O=C(O[C@@H]1Cc2c(O)cc(O)cc2O[C@@H]1c1cc(O)c(=O)c2c(O)c(O)cc([C@H]3Oc4cc(O)cc(O)c4C[C@H]3OC(=O)c3cc(O)c(O)c(O)c3)c2c1)c1cc(O)c(O)c(O)c1 | 0.9 | – | – | – | – | –
15 | C[n+]1cc(NC(=O)c2ccc3ccc4ccc(C(=O)Nc5cc6ccccc6[n+](C)c5)nc4c3n2)cc2ccccc21 | – | – | – | – | 21.2 | –
16 | O=c1c(O)cc([C@H]2Oc3cc(O)cc(O)c3C[C@H]2O)cc2c([C@H]3Oc4cc(O)cc(O)c4C[C@H]3O)cc(O)c(O)c12 [THEAFLAVIN] | – | > 0.5 | – | – | – | –
17 | CN(C)CCCNCc1ccc(-c2nc(-c3ccc(CNCCCN(C)C)cc3)c3ccn(-c4ccc(CNCCCN(C)C)cc4)c3n2)cc1 | 34.9 | 0.05 | – | ≥ 7.2 | – | –
18 | CN1CCN(CCCCNCc2ccc(-c3ccc4ccc5ccc(-c6ccc(CNCCCCN7CCN(C)CC7)cc6)nc5c4n3)cc2)CC1 | 24.1 | 0.0314 | > 10 | – | – | –
19 | CN1CCN(CCCCNCc2ccc(-c3cc(-c4ccc(CNCCCCN5CCN(C)CC5)cc4)c4ccn(-c5ccccc5)c4c3)cc2)CC1 | 20.4 | 0.074 | – | – | – | –
20 | CN(C)CCCCNCc1ccc(-c2cc3c(ccn3-c3ccccc3)c(-c3ccc(CNCCCCN(C)C)cc3)n2)cc1 | 21 | 0.087 | – | – | – | –
21 | CN(C)CCCNCc1ccc(-c2cn(-c3ccc(CNCCCN(C)C)cc3)c3ncnc(-c4ccc(CNCCCN(C)C)cc4)c23)cc1 | 20.3 | 0.046 | – | – | – | –
22 | CN(C)CCCCNCc1ccc(-c2cc(-c3ccc(CNCCCCN(C)C)cc3)c3ccn(-c4ccccc4)c3n2)cc1 | 26.3 | 0.223 | – | – | – | –
23 | CN(C)CCCCNCc1ccc(-c2nc(-c3ccc(CNCCCCN(C)C)cc3)c3ccn(-c4ccc(CNCCCCN(C)C)cc4)c3n2)cc1 | > 36 | 0.048 | – | – | – | 23.8
24 | CN(C)CCCNCc1ccc(-c2nc(-c3ccc(CNCCCN(C)C)cc3)c3ccn(-c4ccccc4)c3n2)cc1 | 25.9 | 0.137 | – | – | – | –
